{"source": "paper PMC3773979", "about": "(Biochemistry, 2010)", "key": {"S. pneumoniae DHFR [1]": {"biological_target": "T1, S. pneumoniae DHFR (Streptococcus pneumoniae serotype 4, UniProt Q54801, A78V/I100L/K60Q/V77A)", "T1 sequence (Q54801 1-168 K60Q/V77A/A78V/I100L)": "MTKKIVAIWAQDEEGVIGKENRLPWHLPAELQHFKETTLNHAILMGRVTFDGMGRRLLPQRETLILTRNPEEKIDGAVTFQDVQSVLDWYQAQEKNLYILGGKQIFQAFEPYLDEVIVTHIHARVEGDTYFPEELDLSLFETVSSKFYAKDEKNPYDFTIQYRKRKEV", "settings": "pH 7.0, MTEN buffer, 25 °C"}, "Sp9 mutant DHFR [2]": {"biological_target": "Sp9 mutant DHFR (Streptococcus pneumoniae serotype 4, UniProt Q54801, A149T/E133A/H26Y/I100V/Q81H/Q91S)", "settings": "pH 7.0, MTEN buffer, 25 °C"}, "E. coli DHFR [3]": {"test_system": "E. coli DHFR", "settings": "cited from earlier work"}, "E. coli DHFR [4]": {"test_system": "E. coli DHFR", "settings": "cited from earlier work", "remark": "listed apart in the source"}, "S. pneumoniae DHFR [5]": {"biological_target": "T1, S. pneumoniae DHFR", "test": "Stopped-flow binding kinetics", "settings": "MTEN buffer, 25 °C, relaxation method"}, "S. pneumoniae DHFR [6]": {"biological_target": "T1, S. pneumoniae DHFR", "test": "Equilibrium fluorescence quenching titration, spDHFR", "assay_type": "binding", "settings": "read-out: Kd (NADPH), pH 7.0, MTEN buffer"}, "E. coli DHFR (wt)": {"test_system": "E. coli DHFR (wt)", "settings": "read-out: Kd (NADPH); pH 7.0; cited from earlier work"}, "Sp9 mutant DHFR [7]": {"biological_target": "T2, Sp9 mutant DHFR (Streptococcus pneumoniae serotype 4, UniProt Q54801, A149T/E133A/H26Y/I100V/Q81H/Q91S)", "T2 sequence (Q54801 1-168 H26Y/Q81H/Q91S/I100V/E133A/A149T)": "T1 sequence (Q54801 1-168 K60Q/V77A/A78V/I100L) with H26Y, Q60K, A77V, V78A, Q81H, Q91S, L100V, E133A, A149T", "test": "Equilibrium fluorescence quenching titration, Sp9", "assay_type": "binding", "settings": "read-out: Kd (NADPH), pH 7.0, MTEN buffer"}, "Bacterial DHFRs": {"test_system": "Bacterial DHFRs", "settings": "cited from earlier work"}}, "note": "Substitutions are numbered along the chain they refer to. Like-named read-outs stand apart in the source and are kept apart here. Marks after values point to notes of the source that are not given here."}
{"molecule": "Nc1nc(=O)c2c([nH]1)NCC(CNc1ccc(C(=O)N[C@@H](CCC(=O)O)C(=O)O)cc1)=N2", "note": "[H2F, 7,8-dihydrofolate]", "values": [{"measurement": "Km", "setting": "S. pneumoniae DHFR [1]; read-out: KM (H2F)", "value": "4.4 ± 0.95", "unit": "µM"}, {"measurement": "Km", "setting": "Sp9 mutant DHFR [2]; read-out: KM (H2F)", "value": "< 0.63", "unit": "µM"}, {"measurement": "Km", "setting": "E. coli DHFR [3]; read-out: KM (H2F)", "value": 0.7, "unit": "µM"}]}
{"molecule": "NC(=O)C1=CN([C@@H]2O[C@H](COP(=O)(O)OP(=O)(O)OC[C@H]3O[C@@H](n4cnc5c(N)ncnc54)[C@H](OP(=O)(O)O)[C@@H]3O)[C@@H](O)[C@H]2O)C=CC1", "note": "[NADPH, nicotinamide adenine dinucleotide phosphate (reduced form)]", "values": [{"measurement": "Km", "setting": "S. pneumoniae DHFR [1]; read-out: KM (NADPH)", "value": "15.7 ± 4.6", "unit": "µM"}, {"measurement": "koff (NADPH)", "setting": "E. coli DHFR [4]", "value": "3.5 ^* s^−1"}, {"measurement": "kon (NADPH)", "setting": "E. coli DHFR [4]", "value": "20.0 ^* μM ^−1s^−1"}, {"measurement": "koff (NADPH)", "setting": "S. pneumoniae DHFR [5]", "value": "18.0 ± 3.2", "unit": "s⁻¹"}, {"measurement": "kon (NADPH)", "setting": "S. pneumoniae DHFR [5]", "value": "11.9 ± 1.4", "unit": "μM ^−1s^−1"}, {"measurement": "Km", "setting": "Sp9 mutant DHFR [2]; read-out: KM (NADPH)", "value": "0.75 ± 0.3", "unit": "µM"}, {"measurement": "Km", "setting": "E. coli DHFR [3]; read-out: KM (NADPH)", "value": 4.8, "unit": "µM"}, {"measurement": "Kd", "setting": "S. pneumoniae DHFR [6]", "value": "210 ± 13", "unit": "nM"}, {"measurement": "Kd", "setting": "E. coli DHFR (wt)", "value": 330, "unit": "nM"}, {"measurement": "Kd", "setting": "Sp9 mutant DHFR [7]", "value": "160 ± 58", "unit": "nM"}]}
{"molecule": "COc1cc(Cc2cnc(N)nc2N)cc(OC)c1OC", "note": "[Trimethoprim]", "values": [{"measurement": "TMP binding", "setting": "Bacterial DHFRs; bacterial DHFRs", "value": 0.08, "unit": "nM"}, {"measurement": "tighter binding to bacterial DHFRs than human DHFR", "setting": "Bacterial DHFRs; bacterial versus human DHFR", "value": 2500, "unit": "fold"}]}
